{"source": "patent US7531520B2", "about": "“Drug and food or drink for improving pancreatic functions” (Morinaga Milk Industry Co., Ltd., priority 2005, dated 2009)", "key": {"db/db mice [1]": {"system": "db/db mice", "experiment": "Hyperglycemia improving effect in type-II diabetes model mice (Reference Example 1)", "assay_type": "in vivo", "details": "male db/db mice, oral 1 mL of 15 μg/mL once a day", "experimental": "The final DMSO concentration was adjusted to 0.2%. […] Fasting blood glucose levels and random blood glucose levels were measured over time using Antisense II (Bayer-Sankyo Co., Ltd.). The fasting blood glucose levels were measured after 15 hours of fasting.\nChanges over time in random blood glucose levels and fasting blood glucose levels during the test sample administration period are shown in FIGS. 3 and 4."}, "db/db mice [2]": {"system": "db/db mice", "procedure": "This test was performed in order to evaluate the pancreatic endocrine gland cell function (insulin production ability) protecting action of 3-O-β-D-glucopyranosyl-4-methyl-ergost-7-en-3-ol by using db/db mice known as a model animal of pancreatic hypofunction or pancreatic tissue dysfunction.\nIn this test, 6-week old male db/db mice (purchased from Clea Japan, Inc.) were used. These mice were divided into groups, each consisting of 7 animals. Each test sample was dissolved in DMSO, and the concentration was adjusted to 0.1 or 1 μg/mL with physiological saline. The final DMSO concentration was adjusted to 0.2%. The model mice were orally administered with 1 mL of the test sample once a day everyday for 42 days with a sonde. The serum insulin level was measured on the 43rd day of the continuous administration by using Lbis insulin mouse ELISA kit (Shibayagi Co., Ltd)."}, "db/db mice [3]": {"system": "db/db mice", "experiment": "Pancreatic tissue protecting action, Langerhans islets in pancreatic sections (Test Example 2)", "assay_type": "in vivo", "experimental": "The final DMSO concentration was adjusted to 0.2%. […] On the 43rd day of the continuous administration, the pancreas was extracted, divided into three portions of upstream, midstream and downstream from the duodenum side, and fixed with a formalin solution, and then paraffin blocks were prepared in a conventional manner. Section slides were prepared from the paraffin blocks, and subjected to hematoxylin-eosin staining. The numbers of Langerhans islets existing on the sections of the 3 position of the pancreas, and area of Langerhans islet having the maximum area on each section were measured by using an ocular micrometer on a microscope (“ECLIPSE E600”, NIKON CORP.)."}, "[4]": {"details": "oral 1 μg once a day for 42 days, pancreatic sections"}}, "note": "Like-named read-outs stand apart in the source and are kept apart here."}
{"smiles": "CC1C(O[C@@H]2O[C@H](CO)[C@@H](O)[C@H](O)[C@H]2O)CC[C@@]2(C)C1CC=C1[C@@H]3CC[C@H]([C@H](C)CC[C@H](C)C(C)C)[C@@]3(C)CC[C@@H]12", "note": "(stereo partly drawn) [Test sample, 3-O-β-D-glucopyranosyl-4-methyl-ergost-7-en-3-ol]", "values": [{"measurement": "Changes over time in random blood glucose levels", "setting": "db/db mice [1]; FIG. 3, versus negative sample", "value": "effect of suppressing the increases in blood glucose levels was clearly observed"}, {"measurement": "Changes over time in fasting blood glucose levels", "setting": "db/db mice [1]; after 15 hours of fasting, FIG. 4, versus negative sample", "value": "effect of suppressing the increases in blood glucose levels was clearly observed"}, {"measurement": "Effect on serum insulin level (pancreatic function protecting effect)", "setting": "db/db mice [2]; 0.1 μg/animal, 43rd day", "value": "any significant effect was not observed"}, {"measurement": "Serum insulin level relative to that observed in the negative test", "setting": "db/db mice [2]; 1 μg/animal, 43rd day", "value": 216, "unit": "%"}, {"measurement": "Serum insulin levels on 43rd day of administration", "setting": "db/db mice [2]; oral 0.1 μg/animal once a day for 42 days", "value": "2.24 ± 0.66", "unit": "ng/mL"}, {"measurement": "Serum insulin levels on 43rd day of administration", "setting": "db/db mice [2]; oral 1 μg/animal once a day for 42 days", "value": "4.29 ± 0.71", "unit": "ng/mL"}, {"measurement": "Maximum areas of Langerhans islets relative to that observed in the negative test", "setting": "db/db mice [3]; 1 μg, 43rd day", "value": 3.6, "unit": "times"}, {"measurement": "Number of Langerhans islets relative to negative sample-administered mice", "setting": "db/db mice [3]; 1 μg, 43rd day", "value": 188, "unit": "%"}, {"measurement": "Maximum area of Langerhans islets on 43rd day of administration", "setting": "db/db mice [3]; [4]", "value": "160.0 ± 116.7 × 10^3 (μm^2)"}, {"measurement": "The numbers of Langerhans islets in sections on 43rd day of administration", "setting": "db/db mice [3]; [4]", "value": "75.7 ± 24.7", "unit": "piece"}]}
